Patent publication US12285407B2, “Bis-indolylmethane derivatives and uses thereof” (The University of The West Indies, priority 2018, dated 2025)
Read-outs that look alike come from different tables or passages of the source.

Experiments:
Escherichia coli = test: Checkerboard synergy (FICI) of antibiotics with SP-BIM; design: MIC SP-BIM 13 only / MIC in combination: Antibiotic: unit not given beside the values; conditions: for MIC: 24 h
Candida albicans = test: as above; design: MIC SP-BIM 13 only / MIC in combination: Antibiotic / MIC antibiotic only: unit not given beside the values
Staphylococcus aureus = test: as above; assay type: cell-based; conditions: Staphylococcus aureus, Staphylococcus aureus; for MIC: 24 h, antibiotic alone, read-out: MIC antibiotic only
Klebsiella pneumoniae = test: as above; assay type: cell-based; conditions: for MIC: 24 h, antibiotic alone, read-out: MIC antibiotic only
Streptococcus pneumoniae [1] = test: as above; assay type: cell-based; conditions: for MIC: 24 h, antibiotic alone, read-out: MIC antibiotic only
Enterococcus faecium = test: as above; assay type: cell-based; conditions: Enterococcus faecium, Enterococcus faecium; for MIC: 24 h, antibiotic alone, read-out: MIC antibiotic only
Bacillus cereus = test: as above; assay type: cell-based
[2] = test system: Klebsiella pneumoniae ATCC 49472; test: Broth microdilution MIC of SP-BIMs; assay type: cell-based; conditions: ATCC49472, SP-BIM alone, read-out: MIC Klebisella pneumoniae ATCC 49472
[3] = test system: Candida albicans ATCC 22972; test: Broth microdilution MIC of SP-BIMs; assay type: cell-based; conditions: ATCC22972, SP-BIM alone, read-out: MIC Candida albicans ATCC 22972
[4] = test system: Salmonella typhimurium ATCC 14028; test: Broth microdilution MIC of SP-BIMs; assay type: cell-based; conditions: Salmonella enterica, read-out: MIC Salmonella tvpkimurium ATCC 14028
Text: Reference microorganisms used in this study included: Bacillus cereus (American Type Culture Collection (ATCC) No. 14579), Streptococcus pyogenes (ATCC No. 19615), Staphylococcus aureus (ATCC No. 12600), Enterococcus faecium (ATCC No. 19434), Corynebacterium diphtheriae (ATCC No. 27010), Escherichia coli (ATCC No. 35218), Salmonella typhimurium (ATCC No. 14028), Pseudomonas aeruginosa (ATCC No. 27853), Klebsiella pneumoniae (ATCC No. 49472), and Candida albicans (ATCC No. 22972).
Prior to each experiment, cultures were streaked onto clean BHI agar plates and incubated at 35° C. for 24 hours. Colonies of the respective cultures were selected and inoculated in phosphate buffer saline (pH 7.5) to a 0.5 McFarland turbidity standard (equivalent to 10^8 CFU mL^−1). The bacterial suspension was then diluted 1:100 in cation adjusted Mueller Hinton Broth (ca-MHB) (Oxoid Ltd, Basingstoke, Hampshire, England).
Stock solutions (50 mg mL^−1) of the SP-BIM test compounds were prepared in DMSO and stored at 4° C. Working preparations of each compound was made up to 1 mg/mL in sterile deionized water with a final DMSO concentration of 10%.
To assess the antibiotic properties of the library of SP-BIMs, the broth microdilution assay was performed in 96-well microplates according to the Clinical and Laboratory Standards Institute 2014 Guidelines (CLSI 2014). The broth microdilution assay was used to determine the minimum inhibitory concentration (MIC). […] Bacterial cells (˜10^6 CFU mL^−1) were inoculated into cation adjusted-Mueller Hinton broth containing the test compound in a twofold serial dilution ranging between 250 μg mL^−1 and 0.02 μg mL^−1. Plates were incubated at 35° C. for 18 hours after which 50 μL of 5% resazurin solution was added to each well. Resazurin is a blue dye which, upon reduction by living cells, turns to a pink resorufin product. Plates were shaken for 1 hour after the addition of the dye. The MIC was recorded as the well with the lowest concentration of test compound where no color change was observed.

[5] = test system: Streptococcus pyogenes ATCC 19615; test: Broth microdilution MIC of SP-BIMs; assay type: cell-based; conditions: ATCC19615, SP-BIM alone, read-out: MIC Streptococcus pyogenes ATCC 19615
[6] = test system: Escherichia coli ATCC 35218; test: Broth microdilution MIC of SP-BIMs; assay type: cell-based; conditions: ATCC35218, SP-BIM alone, read-out: MIC Escherichia coli ATCC 35218
[7] = test system: Bacillus cereus ATCC 14579; test: Broth microdilution MIC of SP-BIMs; assay type: cell-based; conditions: ATCC14579, SP-BIM alone, read-out: MIC Bacillus cereus ATCC 14579
Streptococcus pneumoniae [8] = test: Adjuvant broth microdilution (antibiotic MIC with SP-BIM at 50 μg/mL); assay type: cell-based; conditions: Streptococcus pneumoniae, Streptococcus pneumonia, SP-BIM at 50 μg mL^−1
[9] = test system: Corynebacterium diphtheriae ATCC 27010; test: Broth microdilution MIC of SP-BIMs; assay type: cell-based; conditions: ATCC27010, SP-BIM alone, read-out: MIC Corynebacterium diphtheriae ATCC 27010
[10] = test system: Staphylococcus aureus ATCC 12600; test: Broth microdilution MIC of SP-BIMs; assay type: cell-based; conditions: ATCC12600, SP-BIM alone, read-out: MIC Staphylococcus aureus ATCC 12600
[11] = test system: Enterococcus faecium ATCC 19434; test: Broth microdilution MIC of SP-BIMs; assay type: cell-based; conditions: ATCC19434, SP-BIM alone, read-out: MIC Enterococcus faecium ATCC 19434
[12] = test system: Pseudomonas aeruginosa ATCC 27853; test: Broth microdilution MIC of SP-BIMs; assay type: cell-based; conditions: ATCC27853, SP-BIM alone, read-out: MIC Pseudomonas aeruginosa ATCC 27853
[13] = MIC of the antibiotic in combination with SP-BIM 13
[14] = SP-BIM 9 in combination with the labelled antibiotic
[15] = SP-BIM 13 in combination with the labelled antibiotic
[16] = antibiotic in combination with SP-BIM 9
[17] = antibiotic in combination with SP-BIM 13
[18] = Streptococcus pneumonia (title: Streptococcus pyogenes), antibiotic + SP-BIM 9
[19] = Streptococcus pneumoniae, antibiotic + SP-BIM 13
[20] = read-out: MIC of Kanamvcin with SP-BIM
[21] = read-out: MIC of Vancomvcin with SP-BIM

## O=C(O)c1cn(C2CC2)c2cc(N3CCNCC3)c(F)cc2c1=O [Ciprofloxacin, ciprofloxacin]
Escherichia coli; read-out: MIC antibiotic only, Escherichia coli, antibiotic alone
  MIC: 2 µg/mL
Escherichia coli; read-out: MIC antibiotic only, Escherichia coli, antibiotic alone, SP-BIM 9 checkerboard
  MIC: 2 µg/mL
Escherichia coli; [13]
  MIC in combination: Antibiotic: 1
Escherichia coli; [14]
  FIC of SP-BIM 9: 0.128
Escherichia coli; [15]
  FIC of SP-BIM 13: 0.1
Escherichia coli; antibiotic + SP-BIM 9
  Interpretation: Synergy (Synergy: FICI≤0.5)
  Σ FIC: <0.4
Escherichia coli; antibiotic + SP-BIM 13
  Interpretation: Additive (Additive: FICI>0.5-1.0)
  Σ FIC: <0.6
Escherichia coli; combination with SP-BIM 13
  FIC of antibiotic: 0.5
Escherichia coli; in combination with SP-BIM 9
  FIC of antibiotic: 0.25
Candida albicans; 24 h, read-out: MIC antibiotic only
  MIC: 63 µg/mL
Candida albicans; [13]
  MIC in combination: Antibiotic: 63
Candida albicans; [15]
  FIC of SP-BIM 13: 1.0
Candida albicans; antibiotic + SP-BIM 13
  Interpretation: Indifferent (Indifferent: FICI>1.0-4.0)
  Σ FIC: <2.0
Candida albicans; combination with SP-BIM 13
  FIC of antibiotic: 1.0
Staphylococcus aureus; SP-BIM 9 checkerboard
  MIC: 1 µg/mL
Staphylococcus aureus; SP-BIM 13 checkerboard
  MIC: 1 µg/mL
Staphylococcus aureus; [14]
  FIC of SP-BIM 9: 0.02
Staphylococcus aureus; [15]
  FIC of SP-BIM 13: 0.5
Staphylococcus aureus; antibiotic + SP-BIM 9
  Interpretation: Synergy (Synergy: FICI≤0.5)
  Σ FIC: <0.52
Staphylococcus aureus; antibiotic + SP-BIM 13
  Interpretation: Additive (Additive: FICI>0.5-1.0)
  Σ FIC: 1.0
Staphylococcus aureus; [16]
  MIC in combination, Antibiotic: 0.5 µg/mL
Staphylococcus aureus; [17]
  MIC in combination, Antibiotic: 0.5 µg/mL
Staphylococcus aureus; in combination with SP-BIM 9
  FIC of antibiotic: 0.50
Staphylococcus aureus; in combination with SP-BIM 13
  FIC of antibiotic: 0.5
Klebsiella pneumoniae; SP-BIM 9 checkerboard
  MIC: 2 µg/mL
Klebsiella pneumoniae; SP-BIM 13 checkerboard
  MIC: 2 µg/mL
Klebsiella pneumoniae; [14]
  FIC of SP-BIM 9: 0.252
Klebsiella pneumoniae; [15]
  FIC of SP-BIM 13: 0.1
Klebsiella pneumoniae; antibiotic + SP-BIM 9
  Interpretation: Synergy (Synergy: FICI≤0.5)
  Σ FIC: <0.5
Klebsiella pneumoniae; antibiotic + SP-BIM 13
  Interpretation: Synergy (Synergy: FICI≤0.5)
  Σ FIC: <0.4
Klebsiella pneumoniae; [16]
  MIC in combination, Antibiotic: 0.5 µg/mL
Klebsiella pneumoniae; [17]
  MIC in combination, Antibiotic: 0.5 µg/mL
Klebsiella pneumoniae; in combination with SP-BIM 9
  FIC of antibiotic: 0.25
Klebsiella pneumoniae; in combination with SP-BIM 13
  FIC of antibiotic: 0.3
Streptococcus pneumoniae [1]; Streptococcus pneumonia (title: Streptococcus pyogenes), SP-BIM 9 in combination with the labelled antibiotic
  FIC of SP-BIM 9: 0.26
Streptococcus pneumoniae [1]; [18]
  Interpretation: Synergy (Synergy: FICI≤0.5)
  Σ FIC: <0.27
Streptococcus pneumoniae [1]; Streptococcus pneumonia (title: Streptococcus pyogenes), in combination with SP-BIM 9
  FIC of antibiotic: 0.01
Streptococcus pneumoniae [1]; Streptococcus pneumoniae, Streptococcus pneumonia (title: Streptococcus pyogenes), SP-BIM 9 checkerboard
  MIC: 2 µg/mL
Streptococcus pneumoniae [1]; Streptococcus pneumoniae, Streptococcus pneumoniae, SP-BIM 13 checkerboard
  MIC: 2 µg/mL
Streptococcus pneumoniae [1]; Streptococcus pneumoniae, SP-BIM 13 in combination with the labelled antibiotic
  FIC of SP-BIM 13: 0.5
Streptococcus pneumoniae [1]; [19]
  Interpretation: Additive (Additive: FICI>0.5-1.0)
  Σ FIC: <1.0
Streptococcus pneumoniae [1]; Streptococcus pneumoniae, antibiotic in combination with SP-BIM 13
  MIC in combination, Antibiotic: 1 µg/mL
Streptococcus pneumoniae [1]; Streptococcus pneumoniae, in combination with SP-BIM 13
  FIC of antibiotic: 0.5
Enterococcus faecium; SP-BIM 9 checkerboard
  MIC: 8 µg/mL
Enterococcus faecium; SP-BIM 13 checkerboard
  MIC: 8 µg/mL
Enterococcus faecium; [15]
  FIC of SP-BIM 13: 0.5
Enterococcus faecium; antibiotic + SP-BIM 13
  Interpretation: Additive (Additive: FICI>0.5-1.0)
  Σ FIC: 0.6
Enterococcus faecium; [17]
  MIC in combination, Antibiotic: 1 µg/mL
Enterococcus faecium; in combination with SP-BIM 13
  FIC of antibiotic: 0.1
Bacillus cereus; 24 h, antibiotic alone, SP-BIM 9 checkerboard, read-out: MIC antibiotic only
  MIC: 8 µg/mL
Bacillus cereus; SP-BIM 9 concentration in combination with the labelled antibiotic
  MIC in combination, SP-BIM 9: 16 µg/mL
Bacillus cereus; [14]
  FIC of SP-BIM 9: 0.064
Bacillus cereus; [15]
  FIC of SP-BIM 13: 0.0
Bacillus cereus; antibiotic + SP-BIM 9
  Interpretation: Synergy (Synergy: FICI≤0.5)
  Σ FIC: <0.3
Bacillus cereus; antibiotic + SP-BIM 13
  Interpretation: Additive (Additive: FICI>0.5-1.0)
  Σ FIC: 1.0
Bacillus cereus; [16]
  MIC in combination, Antibiotic: 2 µg/mL
Bacillus cereus; in combination with SP-BIM 9
  FIC of antibiotic: 0.25
Bacillus cereus; in combination with SP-BIM 13
  FIC of antibiotic: 1.00

## CN(C)c1ccc(C(c2c[nH]c3ccccc23)c2c[nH]c3ccccc23)cc1 [SP-BIM 2, [bis(indoly-3-yl)-4-dimethylaminophenyl]methane]
[2]
  MIC: > 250 µg/mL
[3]
  MIC: 250 µg/mL
[4]
  MIC: 250 µg/mL
[5]
  MIC: > 250 µg/mL
[6]
  MIC: > 250 µg/mL
[7]
  MIC: > 250 µg/mL
Streptococcus pneumoniae [8]; [20]
  MIC: 125 µg/mL
Streptococcus pneumoniae [8]; [21]
  MIC: 1 µg/mL
[9]
  MIC: > 250 µg/mL
[10]
  MIC: > 250 µg/mL
[11]
  MIC: > 250 µg/mL
[12]
  MIC: 250 µg/mL

## CC(C)(C)c1cc(C(c2c[nH]c3ccccc23)c2c[nH]c3ccccc23)c(O)c(C(C)(C)C)c1 [SP-BIM 3, [bis(indol-3-yl)-3,5-di-tert-butyl-2-hydroxyphenyl]methane]
[2]
  MIC: > 250 µg/mL
[3]
  MIC: 250 µg/mL
[4]
  MIC: 250 µg/mL
[5]
  MIC: > 250 µg/mL
[6]
  MIC: > 250 µg/mL
[7]
  MIC: > 250 µg/mL
Streptococcus pneumoniae [8]; [20]
  MIC: 125 µg/mL
Streptococcus pneumoniae [8]; [21]
  MIC: 1 µg/mL
[9]
  MIC: > 250 µg/mL
[10]
  MIC: > 250 µg/mL
[11]
  MIC: > 250 µg/mL
[12]
  MIC: 250 µg/mL

## O=[N+]([O-])c1cccc(C(c2c[nH]c3ccccc23)c2c[nH]c3ccccc23)c1 [SP-BIM 5, [bis(indol-3-yl)-3-nitrophenyl]methane]
[2]
  MIC: > 250 µg/mL
[3]
  MIC: 250 µg/mL
[4]
  MIC: 250 µg/mL
[5]
  MIC: > 250 µg/mL
[6]
  MIC: > 250 µg/mL
[7]
  MIC: > 250 µg/mL
Streptococcus pneumoniae [8]; [20]
  MIC: 125 µg/mL
Streptococcus pneumoniae [8]; [21]
  MIC: 1 µg/mL
[9]
  MIC: > 250 µg/mL
[10]
  MIC: > 250 µg/mL
[11]
  MIC: > 250 µg/mL
[12]
  MIC: 250 µg/mL

## c1cc(C(c2c[nH]c3ccccc23)c2c[nH]c3ccccc23)cc(C(c2c[nH]c3ccccc23)c2c[nH]c3ccccc23)c1 [SP-BIM 7, 1,3-bis[bis(indoly-3-yl)methyl]benzene]
[2]
  MIC: > 250 µg/mL
[3]
  MIC: 250 µg/mL
[4]
  MIC: 250 µg/mL
[5]
  MIC: > 250 µg/mL
[6]
  MIC: > 250 µg/mL
[7]
  MIC: > 250 µg/mL
Streptococcus pneumoniae [8]; [20]
  MIC: 125 µg/mL
Streptococcus pneumoniae [8]; [21]
  MIC: 1 µg/mL
[9]
  MIC: > 250 µg/mL
[10]
  MIC: > 250 µg/mL
[11]
  MIC: > 250 µg/mL
[12]
  MIC: 250 µg/mL
